Assay results: patent US20250288599A1, “PHARMACEUTICAL COMPOSITIONS AND METHODS FOR TREATING OSTEOARTHRITIS” (INSIGNIA PHARMACEUTICALS, LLC, priority 2024, published 2025)
Read-outs that look alike come from different tables or passages of the source.

Columns and labels:
[1] = target: PLA2 isolated from bee venom (Apis mellifera, UniProt P00630); format: biochemical
[2] = system: SOX9 expression in human osteoarthritic chondrocytes; test: SOX9 relative expression in high and low passage osteoarthritic chondrocytes, 7, 14 or 28 days; format: cell-based; details: high passage, dedifferentiated osteoarthritic chondrocytes with TGF-β3, 14 days
Excerpt: Media was exchanged bi-weekly. […] SOX9 is a transcription factor vital to the development and maintenance of cartilage and is required for chondrogenesis. SOX9 promotes chondrocyte survival and transcriptionally activates cartilage-specific genes. SOX9 is repressed in hypertrophic chondrocytes (i.e. terminally differentiated osteoblast-like cells).

[3] = system: PGE2 release from normal human chondrocytes; test: IL-1β-induced PGE2 release from normal human chondrocyte monolayers, 48 h, competitive EIA; format: cell-based
Method: Mechanical stress and inflammation are thought to sustain catabolic cycles of extracellular matrix deterioration during osteoarthritis. In particular, PGE2 correlates with increased protease production and discomfort or pain in osteoarthritis.
After 48-hours, PGE2 release was evaluated by competitive EIA, and relative potency was calculated versus dose responses of Dex alone.
After 48 hours, PGE2 release was evaluated by competitive enzyme immunoassay (EIA), and relative potency was calculated versus Dex alone.
Lac is commonly thought to be simply an end-product of anaerobic glycolysis; however, it may also have immunomodulatory effects and promote protein modifications that alter gene expression. The goal of this experiment was to determine how Lac supplementation affects early-phase, inflammatory, and late-stage redifferentiation in chondrocyte models. To establish how Lac may influence inflammation early in osteoarthritis, monolayers of normal human chondrocytes were exposed to Lac dose responses of up to 100 millimolar, concurrently with 0.5 nanograms per milliliter IL-1β for 48 hours. The release of PGE2 was then quantified using competitive EIA. To investigate how Lac affects transcriptional programs in dedifferentiated osteoarthritic chondrocytes, monolayer cultures and micromass pellets were treated for 14 days with 100 millimolar final concentrations of Lac, with and without 10 nanograms per milliliter transforming growth factor beta 3 (TGF-β3). Total RNA was then isolated, and relative expression of SOX9 or Col2a1 was calculated using qRT-PCR, normalized to GAPDH.

[4] = system: MMP13 expression in dedifferentiated osteoarthritic chondrocytes; test: MMP13 regulation in high passage osteoarthritic chondrocyte monolayer model, 28 days; format: cell-based, human; details: 28 days of treatment; 1 mM Try, 0.5 mM DA
Method: (§1) These compounds were tested in a high passage osteoarthritic chondrocyte monolayer model, alone or in combination with other agents, for both transcriptional regulation of standard markers and IL-1β-induced PGE2 production.

Cyclooxygenase-2 (COX-2) = Cyclooxygenase-2 (COX-2) (Homo sapiens, UniProt P35354); test: COX-2 inhibitor screen; format: biochemical; details: any of the concentrations tested; Celecoxib positive control
Excerpt: Celecoxib (Celebrex) was used as a positive control for COX-2.

[5] = system: PGE2 in primary human osteoarthritic synoviocytes; test: Early, pretreatment and intracellular vs secreted PGE2 in IL-1β-stimulated human osteoarthritic synoviocytes; format: cell-based
Method: The concentrations in FIG. 31A were measured at hour three.
Cells were also treated with IL-IRA which inhibits IL-1β by binding the cell-surface […] and inhibiting its dimerization with the IL-1 receptor (IL-1R), effectively blocking IL-1β signaling.
FIG. 33 illustrates two bar graphs that depict the concentrations of PGE2 inside of the cell versus PGE2 that was secreted into the cell culture media. Specifically, the bar graph labeled “Intracellular” illustrates the concentrations of PGE2 inside of the cell and the bar graph labeled “Supernatent” illustrates the concentration of PGE2 that was secreted into the cell culture media. Synoviocytes were stimulated with IL-1β for 6 hours and then cell culture media harvested separately along with collecting cell lysates. […] To test this, the PGE2 concentrations inside of the cells and in the cell culture media were measured to compare them directly to each other.

[6] = system: PGE2 release from osteoarthritic human synoviocytes; test: IL-1β-induced PGE2 and PGD2 release from osteoarthritic-synoviocytes; format: cell-based; details: for IC50: Homo sapiens, read-out: IC50 for PGE2 inhibition
[7] = system: IL-1β release from human THP1 macrophages; test: Two-hit (LPS then ATP) inflammasome activation model, IL-1β release from THP1 macrophages; format: cell-based; details: for IC50: Homo sapiens
Excerpt: The proinflammatory cytokine, IL-1β, is released from cells upon activation of the inflammasome, a multi-protein proinflammatory complex. A two-hit model of inflammasome activation in THP1 macrophages was developed that entails an overnight stimulation with LPS followed by a second proinflammatory stimulus, extracellular ATP, which drives inflammasome assembly and subsequent IL-1β release from the cells into the media.

[8] = system: MCP1 in osteoarthritic human synoviocytes; test: IL-1β-induced MCP1 in osteoarthritic-synoviocytes; format: cell-based; details: IL-1β 0.5 ng/mL; 0.5, 0.8 or 1 millimolar DA; 0.1-100 nanomolar Dex
[9] = system: Col2a1 expression in dedifferentiated osteoarthritic chondrocytes; test: Col2a1 relative expression in high passage osteoarthritic chondrocyte monolayer model with TGF-β; format: cell-based, human; details: TGF-β added to the model; 1 mM Try, 0.5 mM DA
Method: as §1

[10] = system: prostaglandin I2 (PGI2) in primary human synoviocytes; test: PGI2 in IL-1β-stimulated primary human osteoarthritic synoviocytes, 24 h; format: cell-based; details: IL-1β 1 ng/ml
Method: FIG. 25 is a bar graph that depicts the concentration of prostaglandin I2 (PGI2) present in primary human synoviocytes from patients with osteoarthritis that were stimulated with 1 ng/ml final concentration of IL-1β for 24 hours in the presence of varying concentrations of DA and Dex in view of controls. PGI2 concentration response mirrored PGE2 concentrations after DA treatment. […] It is noted that prostaglandin H2 (PGH2) was also tested and was not detected in either cell culture media or from cell lysates. Without being bound by theory, it is believed that PGH2 is an intermediate and is (near) immediately converted into downstream prostaglandins and therefore levels of PGH2 are not detectable.

[11] = cited from earlier work
[12] = system: arachidonic acid (AA) in primary human synoviocytes; test: Early arachidonic acid in IL-1β-stimulated primary human osteoarthritic synoviocytes, 3 h; format: cell-based; details: IL-1β 1 ng/mL
Method: Early concentrations of arachidonic acid (AA) present in primary human synoviocytes from patients with osteoarthritis that were stimulated with 1 ng/mL final concentration interleukin 1-beta (β) for 3 hours in the presence of varying concentrations of Dex and DA in view of controls are depicted in FIG. 32. The concentrations of AA in FIG. 32 were normalized to total protein content from the cell lysates using bicinchoninic acid (BCA).

[13] = system: PGE2 release from normal human chondrocytes; test: IL-1β-induced PGE2 release from normal human chondrocytes, 24 h, DA vs decanoate working solutions; format: cell-based; details: Homo sapiens, Chondrocyte, 25 micromolar, prepared in medium
Method: The activity of DA working solutions prepared in either saline or lactated ringer's (LR) isotonic solutions was assessed. […] In addition, concentrated decanoate working solutions in saline or LR were prepared and added to the cultures at a final concentration of 25 micromolar. PGE2 release was then compared to matching points on the DA or decanoate medium as well as saline and LR controls.

[14] = system: Col2a1 expression in human osteoarthritic chondrocytes; test: Col2a1 relative expression in human osteoarthritic chondrocytes treated with DA and/or Try with TGF-β3; format: cell-based; details: 14-day monolayer culture with TGF-β3; 0.5 mM DA, 1 mM Try
Method: (§2) Total mRNA was then isolated at the indicated times, and qRTPCR was performed with primers specific for MMP13, Col2a1, and the housekeeping gene GAPDH. Relative expression was then calculated versus controls, with normalization to GAPDH.

[15] = system: MMP13 expression in human osteoarthritic chondrocytes; test: MMP13 relative expression in human osteoarthritic chondrocytes treated with DA and/or Try; format: cell-based; details: 28-day monolayer culture; 0.5 mM DA, 1 mM Try
Method: as §2

Cyclooxygenase-2 (COX-2), sequence (P35354 18-604, species assumed): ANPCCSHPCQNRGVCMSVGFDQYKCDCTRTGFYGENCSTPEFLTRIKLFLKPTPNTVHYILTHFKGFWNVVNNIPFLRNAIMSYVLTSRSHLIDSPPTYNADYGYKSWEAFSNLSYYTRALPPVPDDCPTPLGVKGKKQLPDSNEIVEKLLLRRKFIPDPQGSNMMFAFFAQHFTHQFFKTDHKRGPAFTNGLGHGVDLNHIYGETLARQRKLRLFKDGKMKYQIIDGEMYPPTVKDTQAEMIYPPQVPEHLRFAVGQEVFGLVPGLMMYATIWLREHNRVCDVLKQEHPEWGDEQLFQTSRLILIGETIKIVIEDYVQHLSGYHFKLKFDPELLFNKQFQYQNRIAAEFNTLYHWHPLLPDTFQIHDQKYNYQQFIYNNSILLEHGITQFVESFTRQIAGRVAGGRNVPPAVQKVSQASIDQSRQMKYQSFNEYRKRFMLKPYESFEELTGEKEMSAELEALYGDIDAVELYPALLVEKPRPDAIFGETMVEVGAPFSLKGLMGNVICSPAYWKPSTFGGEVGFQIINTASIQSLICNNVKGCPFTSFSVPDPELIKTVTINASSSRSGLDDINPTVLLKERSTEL
PLA2 isolated from bee venom, sequence (P00630 34-167 limits assumed): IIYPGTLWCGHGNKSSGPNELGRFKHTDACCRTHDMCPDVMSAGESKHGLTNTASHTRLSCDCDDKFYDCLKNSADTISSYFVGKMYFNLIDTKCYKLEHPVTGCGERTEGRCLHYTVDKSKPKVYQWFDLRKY

## CCCCCCCCCC(=O)O [DA, decanoic acid]
[1]
  PLA2 activity inhibition: no significant signs of PLA2 activity inhibition
[2]
  SOX9 expression: increased SOX9 transcription
[3]; Homo sapiens, Chondrocyte, DA 500 micromolar final, IL-1β 500 pg/mL, 48 h
  inhibition at 500 µM: 100%
[3]; p-value≤0.05 versus medium controls
  final concentration at which significant inhibition of PGE2 release was observed: 6 µM
[4]
  MMP13 regulation: 1.12 fold
Cyclooxygenase-2 (COX-2)
  inhibition of COX-2 activity: no observed inhibition
[5]; 200 nanomolar DA or 500 nanograms/milliliter IL-1RA, IL-1β 1 nanogram/milliliter
  PGE2 release after pretreatment (5 minutes, 1 hour, or 2 hours) then IL-1β 10 minutes or 1 hour: blocked the low-level activation
[5]; IL-1β 1 ng/ml, 6 hours
  intracellular versus secreted PGE2: causes PGE2 to build up intracellularly instead of getting secreted
[5]; measured at hour three, IL-1β 1 ng/mL
  PGE2 concentration: less than 5000 pg/ml
[6]
  increase of DA potency by 100 picomolar Dex: 2.2 ×
[6]; DA alone, IL-1β 0.5 ng/mL
  IC50: 19.4 µM
[6]; DA in the presence of 100 picomolar Dex
  IC50: 8.62 µM
[6]; IL-1β 0.5 ng/mL
  DA concentration above which PGE2 and PGD2 release was inhibited: above 1 micromolar
[7]
  increased DA potency by 25 nanomolar Dex: 1.917 ×
[7]; THP-1, DA alone, 0.02 to 1.8 millimolar, three independent experiments
  IC50: 125 µM
[7]; THP-1, DA with addition of 25 nanomolar Dex
  IC50: 65 µM
[7]; THP-1, repeated experiments comparing DA to sodium decanoate
  IC50: 172 µM
[8]
  effect on MCP1: reduction in MCP1 in a dose dependent manner
[9]
  Col2a1 regulation: 26 fold
[10]
  secreted PGI2 levels: decreases secreted PGI2 levels
[11]
  pKa (negative log of acid dissociation constant): about 4.9
[12]
  AA concentration normalized to total protein: lower than that of the control with IL-1β
[13]
  inhibition at 25 µM: 62.4%

## N[C@@H](Cc1c[nH]c2ccccc12)C(=O)O [Try, tryptophan]
[4]
  MMP13 regulation: −3.32 fold
[9]
  Col2a1 regulation: −1.36 fold
[14]
  Observed Relative expression of Col2a1: −1.4 fold
[15]
  Observed Relative expression of MMP13: −2.6 fold
